Assay results taken from patent publication US6395787B1, “Ocular hypotensive lipids” (Allergan Sales, Inc., priority 2000, dated 2002).

Key:
human FP receptor = human FP receptor (Homo sapiens, UniProt P43088); assay: Total inositol phosphate accumulation, HEK-293 cells with recombinant human FP receptor; assay type: cell-based; parameters: expressed in transfected cells; details: for % maximal total inositol phosphate accumulation mean χ ± SEM: reference 17-phenyl PGF2α 10^−6 M
Experimental: (§1) HEK-293 cells were grown in DMEM with 10% fetal bovine serum (FBS), 250 μg ml^−1 G418 (Life Technologies) and 200 μg ml^−1 gentamicin or penicillin/streptomycin. […] For transfection, the cells were grown to 50-60% confluency on 10 cm plates. The plasmid pCEP4 incorporating cDNA inserts for the human FP receptor (20 μg) was added to 500 μl of 250 mM CaCl2. HEPES buffered saline×2 (2×HBSS, 280 mM NaCl, 20 mM HEPES acid, 1.5 mM Na2 HPO4, pH 7.05-7.12) was then added dropwise to a […], with continuous vortexing at room temperature. After 30 min, 9 ml DMEM were added to the mixture. The DNA/DMEM/calcium phosphate mixture was then added to the cells, which had been previously rinsed with 10 ml phosphate buffered saline (PBS). The cells were then incubated for 5 h. at 37° C. in humidified 95% air/5% CO2. The calcium phosphate solution was then removed and the cells were treated with 10% glycerol in DMEM for 2 min. The glycerol solution was then replaced by DMEM with 10% fetal bovine serum (FBS). The cells were incubated overnight and the medium was replaced by DMEM/10% FBS containing 250 μg ml^−1 G418 and penicillin/streptomycin. The following day hygromycin B was added to a final concentration of 200 μg ml^−1.
Receptor-mediated phosphoinositide (PI) hydrolysis was determined by measuring the accumulation of total inositol phosphates (IP) in cells preincubated with ^3H-myoinositol. Stable cell lines of HEK 293 cells expressing human or cat FP receptors were plated in 10 cm dishes (10^6 cells per dish in DMEM with 10% FBS). The following day, the cells were incubated with 18 μCi myo-[2 ^3H] inositol (Amersham; […]) in 6 ml of DMEM with 10% FBS for 24 hours at 37° C. The cells were then rinsed twice with phosphate buffered saline (PBS), incubated for 5 min with 1 ml of trypsin-EDTA, and suspended in 10 ml DMEM containing 25 mM HEPES buffer. Cells were pelleted at 1000 rpm and resuspended in DMEM/25 mM HEPES containing 10 mM LiCl for 10 minutes. Aliquots of 200 μl cell suspension were incubated with 50 μl drug for 30 minutes at 37° C. (duplicate determination), and agonist stimulation was terminated with a 750 μl mixture of chloroform:methanol:4N HCl (100:200:2), followed by addition of 250 μl of chloroform and 0.5 N HCl for extraction of inositol phosphates. A 750 μl volume of the aqueous layer was loaded on columns packed with 0.5 ml of Dowex AG 1-X8 anion-exchange resin (formate form, 100-200 mesh; BioRad) to separate radiolabeled components. The elution procedure consisted of three 3 ml washes with 5 mM inositol, then two elutions with 750 μl of 1.3 M ammonium formate with 0.1 M formic acid. The eluate was mixed with 10 ml Aquasol scintillation fluid (Packard Instrument Co.) and total [^3H] inositol phosphates was determined by a liquid scintillation counter.

[1] = molecular target: recombinant feline FP receptor (Felis catus, UniProt A0ABI7XJ69); assay: Ca2+ signal in HEK-293 cells stably transfected with recombinant feline FP receptor; assay type: cell-based, cat; details: for Δ[Ca^2+]i mean χ ± SEM: n = 3
Chain of recombinant feline FP receptor (A0ABI7XJ69 entry or part of it): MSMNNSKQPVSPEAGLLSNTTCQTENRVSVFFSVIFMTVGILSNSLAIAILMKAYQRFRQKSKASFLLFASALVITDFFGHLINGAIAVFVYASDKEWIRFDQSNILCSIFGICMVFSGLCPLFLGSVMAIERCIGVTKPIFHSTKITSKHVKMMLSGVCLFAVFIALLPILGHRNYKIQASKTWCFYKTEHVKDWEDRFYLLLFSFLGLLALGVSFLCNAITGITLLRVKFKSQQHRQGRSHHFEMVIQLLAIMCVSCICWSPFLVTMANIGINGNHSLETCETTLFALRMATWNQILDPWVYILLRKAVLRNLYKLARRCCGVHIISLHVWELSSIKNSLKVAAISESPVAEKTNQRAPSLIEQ
Experimental: Human CRL 1497 cells were plated in culture flasks and fed Dulbecco's modified Eagle's medium (DMEM) containing 10% fetal calf serum, 2 mM 1-glutamine, and 0.05 mg/ml gentacin (all purchased from Gibco, Grand Island, N.Y.). Cell cultures were maintained in a humidified atmosphere of 95% air, 5% CO2 and grown to confluency. Cells were removed from the culture flasks by approximately 1 min treatment with trypsin 0.05%/0.53 mM EDTA in Hanks Balanced Salt Solution (HBSS, Gibco, Grand Island, N.Y.) at 37° C. Proteolytic activity was arrested by adding 5 ml of 10% fetal bovine serum in DMEM. The cells were consecutively washed in Hank's BSS and medium containing 140 mM NaCl, […], 1 mM MgCl2, 1.5 mM CaCl2, 10 mM HEPES: TRIS, 5 mM glucose, 5 mM Na pyruvate, 0.1% bovine serum albumin at pH 7.4: Centrifugation for the washes was performed for 15 minutes at 200 g at room temperature. Cells were counted, resuspended in the above medium and incubated with 2×10^−6 M Fura 2/acetoxymethyl ester in a shaking water bath for 30 minutes at 37° C. The cells were subsequently washed in medium as above and resuspended at a concentration of 2×10^6 cells ml^−1. Aliquots of 0.5 ml cell suspension were then added to autocap microtubes to provide 10^6 cells per experimental determination of intracellular free Ca^2+ concentration ([Ca^2+]i).
Fluorescence was measured in a Perkin-Elmer LS-5 fluorescence spectrophotometer at excitation and emission wavelengths of 340 and 492 nm, respectively, with both slits at 10 nm. For each experimental determination 10^6 cells were washed (200×g for 5 min) and suspended in a 2 ml cuvette with buffer containing 120 mM NaCl, 6 mM KCl, 1 mM MgSO4, 1.5 mM CaCl2, 20 mM HEPES, 1 mg ml^−1 glucose and 1 mg ml^−1 Na pyruvate. Stirring was achieved by an overhead-mounted, paddle stirrer with the temperature maintained at 37° C. The cells were lysed with digitonin (10 μl of 100 mg ml^−1 DMSO) to obtain fmax. EGTA (100 mM) and sufficient 10N NaOH to adjust the pH to 8.5 were then successively added to obtain fmin.
as §1
Ten days after transfection, hygromycin B resistant clones were individually selected and transferred to a separate well on a 24 well plate. […]

Chain of human FP receptor (P43088 whole entry): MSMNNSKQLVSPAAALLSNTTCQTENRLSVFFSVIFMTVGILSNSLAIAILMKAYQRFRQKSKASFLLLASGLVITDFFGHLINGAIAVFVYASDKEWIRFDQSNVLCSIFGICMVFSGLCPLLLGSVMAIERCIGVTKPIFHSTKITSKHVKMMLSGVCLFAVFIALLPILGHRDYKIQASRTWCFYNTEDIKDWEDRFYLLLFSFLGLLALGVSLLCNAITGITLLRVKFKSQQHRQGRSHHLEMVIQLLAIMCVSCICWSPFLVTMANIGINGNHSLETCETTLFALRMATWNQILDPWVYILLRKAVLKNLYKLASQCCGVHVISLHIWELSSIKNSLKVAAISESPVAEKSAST

## CCCCC[C@H](O)/C=C/[C@@H]1[C@@H](C/C=C\CCCC(=O)NCCO)[C@@H](O)C[C@H]1O [PGF2α 1-ethanolamide, (5Z,8α,9α,11α,13E,15S)-9,11,15-trihydroxy-N-(2-hydroxyethyL)prosta-5,13-dien-1-amide]
Human FP receptor; 10^−5 M
  % maximal total inositol phosphate accumulation mean χ ± SEM: 85.0 ± 1.9%
Human FP receptor; 10^−6 M
  % maximal total inositol phosphate accumulation mean χ ± SEM: 48.4 ± 3.3%
Human FP receptor; 10^−7 M
  % maximal total inositol phosphate accumulation mean χ ± SEM: 10.0 ± 1.6%
Human FP receptor; 10^−8 M
  % maximal total inositol phosphate accumulation mean χ ± SEM: 0.3 ± 0.6%
Human FP receptor; HEK-293 cells, recombinant human FP receptor, read-out: E.C.50, total inositol phosphate accumulation
  EC50: 1 µM
[1]; 10^−9 M
  Δ[Ca^2+]i mean χ ± SEM: 22.2 ± 6.4
[1]; 10^−10 M
  Δ[Ca^2+]i mean χ ± SEM: 6.5 ± 5.0
[1]; HEK-293 cells, recombinant feline FP receptor, Ca2+ signal
  difference in potency vs PGF2α: approximately 100 fold
[1]; HEK-293 cells, recombinant feline FP receptor, read-out: E.C.50, Ca2+ signal
  EC50: 1.46 µM
